Laboratory results published in patent publication US8058442B2 (Technion Research and Development Foundation Ltd., priority 2002, dated 2011).
Like-named read-outs stand apart in the source and are kept apart here.

Columns and labels:
PC12 cells = assay: Neuroprotection of PC12 cells against serum-deprivation induced apoptosis (MTT test); assay type: cell-based, rat; conditions: for number of survival cells (cell viability, % of cells cultured with serum): 0.1 μM chelator, serum-free medium, 24 h, serum-free control 38%
Experimental: Rat PC12 cells, originated from rat pheochromocytoma, were grown at 37° C., in a humid 5% CO2, 95% air environment, in a growth medium containing Dulbecco's modified Eagle's Medium (DMEM, GIBCO, BRL) supplemented with glucose (1 mg/1 ml), 5% fetal calf serum, 10% horse serum, and 1% of a mixture of streptomycin/penicillin. On confluence, the culture was removed and the cells were detached by vigorous washing, centrifuged at 200 g for 5 min and resuspended in DMEM with full serum content. 0.5×10^4 cells/well were placed in microtiter plates (96 wells) precoated with collagen (10 μg/cm^2 were allowed to attach for 24 h before treatment).
Twenty-four hours after attachment of the PC12 cells as described in (g), the medium was replaced with DMEM containing 0.1% BSA. The test compounds were added to the cells after 1 h of incubation. After 24 h incubation, the cells were subjected to MTT test as previously described (Gassen et al., 1998). The absorption was determined in a Perkin-Elmer Dual Wavelength Eliza-Reader at λ=570/650 nm after automatic subtraction of background readings. The results are expressed as percentage of the untreated control.
PC12 cells were grown in serum-free medium alone or in serum-free medium with different concentration of the chelators VK-28, M32, HLA20 and Rasagiline. After 24 h incubation, the cells were subjected to MTT test.
Cell viability was expressed as a percentage of cells cultured in medium supplemented with serum, which served as the control group and was designated as 100%. […] Experimental data are shown as mean±SD (r=6).

[1] = n-octanol/water shake-flask distribution coefficient; assay type: physicochemical
Text: The partition coefficient (Pow) or the distribution ratio (Dow) between octanol and water are most commonly used measures of the hydrophobicity of compounds. Dow can depend on the concentration of solute, but at reasonably low concentrations. If the solute is in the same form in both phases, Dow becomes constant and is called the partition coefficient Pow. Pow plays an important role in determining the physico-chemical properties and the behaviour of numerous organic compounds in biological systems. Pow is applied to quantitative structure-activity relationship studies, and as a measure of hydrophobicity. All the partition measurements are carried out using a 1-octanol/water shake-flask procedure (Leo, A J. 1991, “Hydrophobic parameter: measurement and calculation”, Methods Enzymol. 202:544-91) or simply by the elution time of solute from HPLC column. Thereafter, the transport properties of the iron-complexes are examined in the water/lipid membrane system (liposomes), which mimics biomembranes much better than the octanol/water system (Breuer et al, 1995).
1-Octanol (Riedel-deHaën, synthesis grade (250-270 nm abs.<0.06) and glass distilled deionized water were used as the partitioning solutions. A Hewlett-Packard 8450A diode array spectrophotometer was used for the quantitative determination of the tested com-pounds in the standard solutions and in the partitioned solutions. The aqueous phase stock solutions were shaken with an excess of 1-octanol to presaturate them and were then allow-ed to stand overnight before use. The 1-octanol stock solutions were also presaturated with 10 mM NaOH and allowed to settle overnight. The experiments were performed in 10-ml stoppered centrifuge tubes. The tubes were inverted gently for 5 min and then, to assure complete phase separation, they were centrifuged for 20 min at 1,000-2,000 g. The aqueous and organic phases were removed separately and analyzed by UV spectrophotometry.
Lipophilicity plays an important role in drug absorption and distribution. The logarithm of the n-octanol/water distribution coefficients (logD) is the most commonly used measure of the lipophilicity of a drug candidate. Here we used an n-octanol/water shake-flask procedure to determine logD. […] In acidic and basic solution, all the test compounds have low log D values, which refer to a good hydrophilicity. This can be explained by the formation of oxinium chloride (in acid) and sodium oxinate (in base) derivatives.

| Structure (SMILES) | number of survival cells (cell viability, % of cells cultured with serum) (PC12 cells) [%] | inhibitory activity against PC12 apoptosis induced by serum withdrawal (PC12 cells; 1 μM) | PC12 cell death in serum-free medium (toxicity) (PC12 cells; 10 μM) | logD ([1]; H2O, read-out: LogD in H2O) | D in 0.01N HCl ([1]; distribution ratio D = Corg/Caq, 0.01N HCl) | D in 0.01N NaOH ([1]; distribution ratio D = Corg/Caq, 0.01N NaOH) | D in H2O ([1]; distribution ratio D = Corg/Caq, H2O) | logD ([1]; pH 2, 0.01N HCl, read-out: LogD in 0.01N HCl) | logD ([1]; pH 12, 0.01N NaOH, read-out: LogD in 0.01N NaOH) | change in the protection against PC12 cell death induced by serum withdrawal (PC12 cells; 1 or 10 μM, compared with 0.1 μM) |
| --- | --- | --- | --- | --- | --- | --- | --- | --- | --- | --- |
| OCCN1CCN(Cc2ccc(O)c3ncccc23)CC1 [VK-28, 5-[4-(2-hydroxyethyl)piperazin-1-ylmethyl]-8-hydroxyquinoline, reference compound] | 80 | good inhibitory activity | about 75% | – | – | – | – | – | – | – |
| C#CCN1CCN(Cc2ccc(O)c3ncccc23)CC1 [HLA20, 5-(4-propargylpiperazin-1-ylmethyl)-8-hydroxyquinoline] | 65 | – | – | 1.57 | 0.025 | 0.70 | 37.02 | -1.6 | -0.16 | no significant change in the protection |
